Earlier results in patent publication US9289396B2, “Collagen-based implants for sustained delivery of drugs” (Euclid Systems Corporation, priority 2010, dated 2016).

Tests used:
[1] = in phosphate buffer

Compound	Approx. Solubility in water	aqueous solubility [1]
CCOC(=O)O[C@]1(C(=O)OCCl)CC[C@H]2[C@@H]3CCC4=CC(=O)C=C[C@]4(C)[C@H]3[C@@H](O)C[C@@]21C [loteprednol etabonate]	7 µg/mL	
CCNC(=O)CCC/C=C\C[C@@H]1[C@@H](/C=C/[C@@H](O)CCc2ccccc2)[C@H](O)C[C@@H]1O [bimatoprost]	20 µg/mL	
C[C@H]1C[C@H]2[C@@H]3CCC4=CC(=O)C=C[C@]4(C)[C@@]3(F)[C@@H](O)C[C@]2(C)[C@@]1(O)C(=O)CO [betamethasone]	0.5 µg/mL	
CNCC(O)c1ccc(OC(=O)C(C)(C)C)c(OC(=O)C(C)(C)C)c1 (stereo not shown) [dipivefrin]	58 µg/mL	
CN(CCCCCCCCCCN(C)C(=O)Oc1cccc([N+](C)(C)C)c1)C(=O)Oc1cccc([N+](C)(C)C)c1 [demecarium]	0.1 µg/mL	

Next, values leading:

Approx. Solubility in water	aqueous solubility [1]	Compound
8 µg/mL		CN1CCC(=C2c3ccccc3CC(=O)c3sccc32)CC1 [ketotifen]
40 µg/mL		CC(C(=O)O)c1ccc(C(=O)c2cccs2)cc1 (stereo not shown) [suprofen]
8 µg/mL		CC(C)OC(=O)CCC/C=C\C[C@@H]1[C@@H](/C=C/[C@@H](O)COc2cccc(C(F)(F)F)c2)[C@H](O)C[C@@H]1O [travoprost]
	about 50 μg/mL	CC(C)OC(=O)CCC/C=C\C[C@@H]1[C@@H](CC[C@@H](O)CCc2ccccc2)[C@H](O)C[C@@H]1O [latanoprost, 13,14-dihydro-17-phenyl-18,19,20-trinor-prostaglandin F2a-1-isopropyl ester]
20 µg/mL		NC(=O)Cc1cccc(C(=O)c2ccccc2)c1N [nepafenac]
